The source made the active and inactive calls. The calls are words filed in the database; no cut-off is given here.
Experiments:
Felis catus [1] = experiment: In vivo inhibition of beta-2 adrenergic receptor in iv dosed cat assessed as inhibition of isoproterenol-induced vasodepressor response after 30 mins; format: functional
Felis catus [2] = experiment: In vivo inhibition of beta-1 adrenergic receptor in iv dosed cat assessed as inhibition of isoproterenol-induced trachycardia after 30 mins; format: functional; details: 0.5 h
Felis catus [3] = experiment: In vivo inhibition of beta-1 adrenergic receptor in cat assessed as inhibition of isoproterenol-induced trachycardia at 200 ug/kg/min, iv after 30 mins; format: functional, organism-based

Row | SMILES | inhibition (INH) (Felis catus [1]) [%] | ED50 (Felis catus [2]) [mg/kg] | inhibition (Felis catus [3])
1 | O=C(O)C(=O)O.OC(CNCCSc1ccccc1)COc1ccccc1Cl (stereo unspecified) | 0 | 1.46 | 
2 | CCC(C)(C)CSCCCNCC(O)COc1ccccc1.O=C(O)C(=O)O (stereo unspecified) | 0 | 0.083 | 
3 | Cc1ccc(SCCNCC(O)COc2ccccc2)cc1 (stereo unspecified) | 43 | 0.289 | 
4 | CCSCCNCC(O)COc1ccccc1[N+](=O)[O-] (stereo unspecified) |  |  | inactive
5 | O=C(O)C(=O)O.O=[N+]([O-])c1ccccc1OCC(O)CNCCSC1CCCCC1 (stereo unspecified) | 37 | 0.427 | 
6 | C=CCc1ccccc1OCC(O)CNCCCSCC.O=C(O)C(=O)O (stereo unspecified) | 65 | 0.72 | 
7 | Cc1ccc([S+]([O-])CCNCC(O)COc2ccccc2)cc1 (stereo unspecified) | 13 | 0.121 | 
8 | CC(CSc1ccccc1)NCC(O)COc1ccccc1Cl.O=C(O)C(=O)O (stereo unspecified) | 60 | 0.058 | 
9 | CCSCCCNCC(O)COc1ccccc1Cl (stereo unspecified) | 52 | 0.269 | 
10 | Cc1ccccc1OCC(O)CNCC[S+]([O-])c1ccccc1.O=C(O)C(=O)O (stereo unspecified) | 54 | 0.799 | 
11 | Cl.OC(CNCCCSc1ccccc1)COc1ccccc1 (stereo unspecified) |  | 0.415 | 
12 | OC(CNCCSc1ccc(Cl)cc1)COc1ccccc1 (stereo unspecified) |  |  | inactive
13 | CCSCCNCC(O)COc1ccccc1C#N.O=C(O)C(=O)O (stereo unspecified) |  | 0.2 | 
14 | CC[S+]([O-])CCNCC(O)COc1ccccc1.O=C(O)C(=O)O (stereo unspecified) | 10 | 0.195 | 
15 | O=C(O)C(=O)O.O=[N+]([O-])c1ccccc1OCC(O)CNCCCS(=O)(=O)C1CCCCC1 (stereo unspecified) | 75 | 1.46 | 
16 | CC(C)(C[S+]([O-])c1ccccc1)NCC(O)COc1ccccc1.O=C(O)C(=O)O (stereo unspecified) | 84 | 0.185 | 
17 | COc1ccccc1OCC(O)CNCCSc1ccccc1 (stereo unspecified) |  |  | inactive
18 | CC(C)SCCCNCC(O)COc1ccccc1.O=C(O)C(=O)O (stereo unspecified) | 0 | 0.333 | 
19 | Cc1ccccc1OCC(O)CNCCCSc1ccccc1 (stereo unspecified) |  |  | inactive

Row | SMILES | inhibition (INH) (Felis catus [1]) [%] | ED50 (Felis catus [2]) [mg/kg] | inhibition (Felis catus [3])
20 | Cl.OC(CNCCSC1CCCCC1)COc1ccccc1 (stereo unspecified) | 0 | 0.162 | 
21 | CCSCCCNCC(O)COc1ccc([N+](=O)[O-])cc1 (stereo unspecified) |  |  | inactive
22 | CCSCCCNCC(O)COc1ccccc1.O=C(O)C(=O)O (stereo unspecified) | 14 | 0.838 | 
23 | Cc1cccc(OCC(O)CNCCSc2ccccc2)c1 (stereo unspecified) |  |  | inactive
24 | OC(CNCCSc1ccccc1)COc1ccccc1 (stereo unspecified) | 13 | 0.138 | 
25 | Cc1ccccc1OCC(O)CNCCSc1ccccc1 (stereo unspecified) | 53 | 1.55 | 
26 | COc1ccccc1SCCNCC(O)COc1ccccc1.O=C(O)C(=O)O (stereo unspecified) | 24 | 0.482 | 
27 | Cc1ccc(SCCCNCC(O)COc2ccccc2)cc1.Cl (stereo unspecified) | 11 | 1.26 | 
28 | COc1ccc(OCC(O)CNCCSc2ccccc2)cc1 (stereo unspecified) |  |  | inactive
29 | OC(CNCCSCc1ccccc1)COc1ccccc1Cl (stereo unspecified) |  |  | inactive
30 | Cc1ccccc1OCC(O)CNCCOc1ccc(C(N)=O)cc1 (stereo unspecified) [TOLAMOLOL] | 81 |  | 
31 | CCSCCCNCC(O)COc1ccc(NC(C)=O)cc1 (stereo unspecified) |  |  | inactive
32 | O=[N+]([O-])c1ccccc1OCC(O)CNCCSCc1ccccc1 (stereo unspecified) | 0 | 0.946 | 
33 | N#Cc1ccccc1OCC(O)CNCCSc1ccccc1 (stereo unspecified) |  |  | inactive
34 | CCSCCCNCC(O)COc1ccc(OC)cc1 (stereo unspecified) |  |  | inactive
35 | CC(NCC(O)COc1ccccc1)C(C)Sc1ccccc1.O=C(O)C(=O)O (stereo unspecified) | 32 | 0.195 | 
36 | CCSCCCNCC(O)COc1ccccc1C#N.O=C(O)C(=O)O (stereo unspecified) | 0 | 0.135 | 
37 | [O-][S+](CCNCC(O)COc1ccccc1)c1ccc(Cl)cc1 (stereo unspecified) | 0 | 0.08 | 
38 | CCSCCCNCC(O)COc1ccccc1OC.O=C(O)C(=O)O (stereo unspecified) | 70 | 0.285 | 

Row | SMILES | inhibition (INH) (Felis catus [1]) [%] | ED50 (Felis catus [2]) [mg/kg] | inhibition (Felis catus [3])
39 | Cc1ccc(SCCCNCC(O)COc2ccccc2[N+](=O)[O-])cc1 (stereo unspecified) |  |  | inactive
40 | O=C(O)C(=O)O.OC(CNCCCSC1CCCCC1)COc1ccccc1 (stereo unspecified) | 37 | 0.781 | 
41 | O=C(O)C(=O)O.[O-][S+](CCCNCC(O)COc1ccccc1)C1CCCCC1 (stereo unspecified) | 68 | 0.162 | 
42 | O=S(=O)(CCNCC(O)COc1ccccc1)c1ccccc1 (stereo unspecified) | 53 | 1.33 | 
43 | O=[N+]([O-])c1ccccc1OCC(O)CNCCCSC1CCCCC1 (stereo unspecified) |  |  | inactive
44 | [O-][S+](CCNCC(O)COc1ccccc1)c1ccccc1 (stereo unspecified) | 0 | 0.044 | 
45 | CCSCCCNCC(O)COc1ccccc1Br.O=C(O)C(=O)O (stereo unspecified) | 0 | 0.212 | 
46 | CC(CSc1ccccc1)NCC(O)COc1ccccc1.O=C(O)C(=O)O (stereo unspecified) | 0 | 0.016 | 
47 | Cc1ccccc1OCC(O)CNCCSCc1ccccc1 (stereo unspecified) |  |  | inactive
48 | O=C(O)C(=O)O.OC(CNCCSCc1ccccc1)COc1ccccc1 (stereo unspecified) |  | 0.207 | 
49 | O=C(O)C(=O)O.[O-][S+](CCNCC(O)COc1ccccc1)Cc1ccccc1 (stereo unspecified) | 20 | 0.156 | 
50 | CCCc1ccccc1OCC(O)CNCCCSCC (stereo unspecified) |  |  | inactive
51 | CCSCCCNCC(O)COc1ccccc1[N+](=O)[O-].O=C(O)C(=O)O (stereo unspecified) | 12 | 0.13 | 
52 | CCSCCNCC(O)COc1ccccc1.Cl (stereo unspecified) | 0 | 0.332 | 
53 | O=[N+]([O-])c1ccccc1OCC(O)CNCCC[S+]([O-])C1CCCCC1 (stereo unspecified) |  |  | inactive
54 | CCSCCCNCC(O)COc1ccc(CC(N)=O)cc1 (stereo unspecified) |  |  | inactive
55 | CC(C)(CSc1ccccc1)NCC(O)COc1ccccc1.O=C(O)C(=O)O (stereo unspecified) | 40 | 0.065 | 
56 | CC(CNCC(O)COc1ccccc1)Sc1ccccc1.O=C(O)C(=O)O (stereo unspecified) | 18 | 0.559 | 
